{"source": "the supplement of paper PMC10307832", "assay_in_all_cases": "relative viability (nuclei count vs DMSO), 5 days (fraction); higher = more cells survive", "key": {"[1]": {"compound": "CC(O)(CS(=O)(=O)c1ccc(F)cc1)C(=O)Nc1ccc(C#N)c(C(F)(F)F)c1 [Bicalutamide] + CC1(C)CCC(c2ccc(Cl)cc2)=C(CN2CCN(c3ccc(C(=O)NS(=O)(=O)c4ccc(N[C@H](CCN5CCOCC5)CSc5ccccc5)c(S(=O)(=O)C(F)(F)F)c4)cc3)CC2)C1 [Navitoclax] (partner 0.5 µM)", "in_short": "(§1)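 After 5 days of treatment, lung cancer cells in 1536-well plates were fixed and stained in a single step (final 0.05% Triton X-100, 1% formaldehyde, 1 ug/ml Hoechst) and their nuclei counted on 4× images. Treatment had been applied by pin tool the day after seeding as one drug alone or as a fixed anchor-drug dose with five library-drug doses (not always all listed) in √10 steps. Relative viability is the nuclei count of treated wells divided by that of vehicle wells, and values are medians of duplicate plates.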"}, "[2]": {"compound": "C(C(=O)C(=O)O)Br [Bromopyruvate] + Cc1nc(NC(=O)N2CCC[C@H]2C(N)=O)sc1-c1ccnc(C(C)(C)C(F)(F)F)c1 [Alpelisib] (partner 2 µM)", "in_short": "as §1"}, "[3]": {"compound": "CC(O)(CS(=O)(=O)c1ccc(F)cc1)C(=O)Nc1ccc(C#N)c(C(F)(F)F)c1 [Bicalutamide] + C[C@]1(O)C[C@@H](c2nc(-c3ccc4ccc(-c5ccccc5)nc4c3)c3c(N)nccn32)C1 [Linsitinib] (partner 1 µM)", "in_short": "as §1"}, "[4]": {"compound": "CC(O)(CS(=O)(=O)c1ccc(F)cc1)C(=O)Nc1ccc(C#N)c(C(F)(F)F)c1 [Bicalutamide] + CC(=O)c1c(C)c2cnc(Nc3ccc(N4CCNCC4)cn3)nc2n(C2CCCC2)c1=O [Palbociclib] (partner 0.5 µM)", "in_short": "as §1"}}}
{"cell line": "UMC-11", "values": [{"measurement": "relative viability", "setting": "[1]; first compound 0.08 µM", "value": 0.328}, {"measurement": "relative viability", "setting": "[1]; first compound 0.253 µM", "value": 0.25}, {"measurement": "relative viability", "setting": "[1]; first compound 0.8 µM", "value": 0.281}, {"measurement": "relative viability", "setting": "[1]; first compound 2.53 µM", "value": 0.279}, {"measurement": "relative viability", "setting": "[2]; first compound 1 µM", "value": 1.12}, {"measurement": "relative viability", "setting": "[2]; first compound 3.162 µM", "value": 1.01}, {"measurement": "relative viability", "setting": "[2]; first compound 10 µM", "value": 0.983}, {"measurement": "relative viability", "setting": "[2]; first compound 31.62 µM", "value": 0.997}, {"measurement": "relative viability", "setting": "[2]; first compound 100 µM", "value": 1.01}, {"measurement": "relative viability", "setting": "[3]; first compound 0.08 µM", "value": 1.1}, {"measurement": "relative viability", "setting": "[3]; first compound 0.253 µM", "value": 0.662}, {"measurement": "relative viability", "setting": "[3]; first compound 0.8 µM", "value": 1.08}, {"measurement": "relative viability", "setting": "[3]; first compound 2.53 µM", "value": 0.955}, {"measurement": "relative viability", "setting": "[4]; first compound 0.08 µM", "value": 0.34}, {"measurement": "relative viability", "setting": "[4]; first compound 0.253 µM", "value": 0.367}, {"measurement": "relative viability", "setting": "[4]; first compound 0.8 µM", "value": 0.319}, {"measurement": "relative viability", "setting": "[4]; first compound 2.53 µM", "value": 0.347}]}
